Experiments:
PtSIT1 [1] = target: T1, PtSIT1 (Phaeodactylum tricornutum, UniProt B7T1F4, Q321A); assay: biochemical
T1 construct: gene SIT1

PtSIT1 [2] = target: T2, PtSIT1 (Phaeodactylum tricornutum, UniProt B7T1F4); assay: biochemical
T2 construct: gene SIT1

PtSIT1 [3] = target: T3, PtSIT1 (Phaeodactylum tricornutum, UniProt B7T1F4, Q104A); assay: biochemical
T3 construct: gene SIT1

purified protein = substrate: O[Si](O)(O)O; assay: purified protein; settings: inward Na+ gradient (150 mM NaCl outside), valinomycin, 50 mM Tris, 150 mM KCl inside, pH 7.4, error s.e.m. of fit

T1 sequence (B7T1F4 1-512 Q321A): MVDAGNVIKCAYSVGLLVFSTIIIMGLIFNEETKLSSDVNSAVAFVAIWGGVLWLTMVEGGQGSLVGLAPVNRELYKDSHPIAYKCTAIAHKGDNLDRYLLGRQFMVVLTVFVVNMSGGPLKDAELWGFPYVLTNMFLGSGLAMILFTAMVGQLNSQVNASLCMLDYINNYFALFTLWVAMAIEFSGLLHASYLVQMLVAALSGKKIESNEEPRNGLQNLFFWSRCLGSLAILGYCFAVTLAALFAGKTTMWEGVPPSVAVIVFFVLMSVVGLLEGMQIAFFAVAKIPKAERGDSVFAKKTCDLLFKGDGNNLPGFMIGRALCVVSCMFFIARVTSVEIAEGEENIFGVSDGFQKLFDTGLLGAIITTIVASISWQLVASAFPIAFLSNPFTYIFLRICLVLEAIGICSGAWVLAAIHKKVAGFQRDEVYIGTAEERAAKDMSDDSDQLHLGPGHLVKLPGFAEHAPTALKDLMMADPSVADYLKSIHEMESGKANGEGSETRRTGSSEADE
T3 sequence (B7T1F4 1-512 Q104A): as the sequence (B7T1F4 1-512 Q321A) above, with Q104A, A321Q counted along it

Row | Molecule | Kd (PtSIT1 [1]) | Kd (PtSIT1 [2]) | Kd (PtSIT1 [3]) | Km (purified protein)
1 | O[Si](O)(O)O [silicic acid] | 13.3 ± 8 µM | 2.9 ± 2.3 µM | 25.5 ± 11 µM | 
2 | PtSIT1 (Phaeodactylum tricornutum) (protein) MVDAGNVIKCAYSVGLLVFSTIIIMGLIFNEETKLSSDVNSAVAFVAIWGGVLWLTMVEGGQGSLVGLAPVNRELYKDSHPIAYKCTAIAHKGDNLDRYLLGRQFMVVLTVFVVNMSGGPLKDAELWGFPYVLTNMFLGSGLAMILFTAMVGQLNSQVNASLCMLDYINNYFALFTLWVAMAIEFSGLLHASYLVQMLVAALSGKKIESNEEPRNGLQNLFFWSRCLGSLAILGYCFAVTLAALFAGKTTMWEGVPPSVAVIVFFVLMSVVGLLEGMQIAFFAVAKIPKAERGDSVFAKKTCDLLFKGDGNNLPGFMIGRQLCVVSCMFFIARVTSVEIAEGEENIFGVSDGFQKLFDTGLLGAIITTIVASISWQLVASAFPIAFLSNPFTYIFLRICLVLEAIGICSGAWVLAAIHKKVAGFQRDEVYIGTAEERAAKDMSDDSDQLHLGPGHLVKLPGFAEHAPTALKDLMMADPSVADYLKSIHEMESGKANGEGSETRRTGSSEADE |  |  |  | 19.1 ± 4.5 µM

Reference: article PMC4912633, “Direct evidence of the molecular basis for biological silicon transport” (Nature Communications, 2016)
